According to patent US7709497B2, “Pyrazolo[3,4-b]pyridine compound, and its use as a PDE4 inhibitor” (Glaxo Group Limited, priority 2004, dated 2010):

Molecular target: T1, PDE4B (human recombinant) (Homo sapiens, UniProt Q07343)
T1 construct: made in house; host or cells: Saccharomyces cerevisiae strain GL62 (PDE-deficient yeast)
Experiment: PDE4B inhibition, IMAP Fluorescence Polarisation (FP) assay
Format: biochemical
Conditions: n = 2; accuracy ±about 0.5 log unit; read-out: PDE4B pIC50 (FP assay, mean value) (converted)
Description: Human recombinant PDE4B, in particular the 2B splice variant thereof (HSPDE4B2B), is disclosed in WO 94/20079 and also M. M. McLaughlin et al., “A low Km, rolipram-sensitive, cAMP-specific phosphodiesterase from human brain: cloning and expression of cDNA, biochemical characterisation of recombinant protein, and tissue distribution of mRNA”, J. Biol. Chem., 1993, 268, 6470-6476. […]
The ability of compounds to inhibit catalytic activity at PDE4B (human recombinant) or PDE4D (human recombinant) can optionally be determined by IMAP Fluorescence Polarisation (FP) assay (IMAP Explorer kit, available from Molecular Devices Corporation, Sunnydale, Calif., USA; Molecular Devices code: R8062) in a 384-well format.
The IMAP FP assay is able to measure PDE activity in an homogenous, non-radioactive assay format. […] Binding of Fl-AMP product to the beads (coated with the immobilised trivalent cations) slows the rotation of the bound Fl-AMP and leads to an increase in the fluorescence polarisation ratio of parallel to perpendicular light. […]
Biological Data obtained for Example 1 and/or Example 1A (i.e. the compound of formula (I)) (PDE4B and PDE4D inhibitory activities, usually as an average of more than one reading) are as follows, based on current measurements only, and using the above or similar or analogous assay methods. […]

T1 sequence (Q07343 1-564 isoform Q07343-2): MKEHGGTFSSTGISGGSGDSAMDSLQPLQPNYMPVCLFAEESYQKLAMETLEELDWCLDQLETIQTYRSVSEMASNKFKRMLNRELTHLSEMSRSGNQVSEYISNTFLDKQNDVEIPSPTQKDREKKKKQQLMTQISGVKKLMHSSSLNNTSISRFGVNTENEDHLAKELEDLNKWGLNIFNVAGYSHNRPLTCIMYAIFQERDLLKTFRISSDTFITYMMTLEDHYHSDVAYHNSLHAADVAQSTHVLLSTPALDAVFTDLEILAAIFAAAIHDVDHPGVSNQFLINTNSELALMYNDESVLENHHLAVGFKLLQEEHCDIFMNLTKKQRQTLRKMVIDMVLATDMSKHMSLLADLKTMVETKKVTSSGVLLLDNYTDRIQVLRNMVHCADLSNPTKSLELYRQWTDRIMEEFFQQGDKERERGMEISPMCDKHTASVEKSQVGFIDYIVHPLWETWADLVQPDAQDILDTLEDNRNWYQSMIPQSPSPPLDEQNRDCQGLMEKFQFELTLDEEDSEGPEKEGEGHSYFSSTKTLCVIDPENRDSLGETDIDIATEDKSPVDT

IC50: 676 pM
Structure (SMILES): CCn1ncc2c(NC3CCN(C(N)=O)CC3)c(C(=O)NCc3ccc(C)c(C)c3)cnc21 [compound of formula (I), 4-{[1-(aminocarbonyl)-4-piperidinyl]amino}-N-[(3,4-dimethylphenyl)methyl]-1-ethyl-1H-pyrazolo[3,4-b]pyridine-5-carboxamide]
